Source: ChEMBL document CHEMBL3414547, “Recent advances of chroman-4-one derivatives: synthetic approaches and bioactivities” (Eur J Med Chem, 2015)
Values after ≈ are worked out from the molar mass of the structure shown. Values belong to the compound of their own block, whether it stands above or below them.

Columns and labels:
[1] = system: Nannizzia gypsea; test: Antifungal activity against Microsporum gypseum; format: functional
[2] = system: Candida albicans; test: Antifungal activity against Candida albicans; format: functional
[3] = system: Aspergillus niger; test: Antifungal activity against Aspergillus niger; format: functional
[4] = system: Staphylococcus aureus; test: Antibacterial activity against Staphylococcus aureus; format: functional
[5] = system: MDA-MB-231; test: Cytotoxicity against human MDA-MB-231 cells by MTT assay; format: functional, cell-based
[6] = system: KB; test: Cytotoxicity against human KB cells by MTT assay; format: functional, cell-based
[7] = system: SK-N-MC; test: Cytotoxicity against human SK-N-MC cells by MTT assay; format: functional, cell-based
[8] = system: MCF7; test: Cytotoxicity against human MCF7 cells after 72 hrs by MTT assay; format: functional, cell-based; conditions: MCF7, 72 h
[9] = system: T47D; test: Cytotoxicity against human T47D cells after 72 hrs by MTT assay; format: functional, cell-based
[10] = system: MDA-MB-231; test: Cytotoxicity against human MDA-MB-231 cells after 72 hrs by MTT assay; format: functional, cell-based; conditions: MDA-MB-231, 72 h
[11] = system: K562; test: Cytotoxicity against human K562 cells after 24 hrs by MTT assay; format: functional, cell-based; conditions: K562, 24 h
[12] = system: MDA-MB-231; test: Cytotoxicity against human MDA-MB-231 cells after 24 hrs by MTT assay; format: functional, cell-based; conditions: MDA-MB-231, 24 h
[13] = system: SK-N-MC; test: Cytotoxicity against human SK-N-MC cells after 24 hrs by MTT assay; format: functional, cell-based
[14] = system: Staphylococcus aureus; test: Antibacterial activity against methicillin-resistant Staphylococcus aureus 252; format: functional
[15] = system: Candida albicans; test: Antifungal activity against Candida albicans PTCC 5027 after 24 to 48 hrs by agar dilution method; format: functional
[16] = system: Saccharomyces cerevisiae; test: Antifungal activity against Saccharomyces cerevisiae PTCC 5177 after 24 to 48 hrs by agar dilution method; format: functional
[17] = system: Aspergillus niger; test: Antifungal activity against Aspergillus niger PTCC 5012 after 72 hrs by agar dilution method; format: functional; conditions: PTCC 5012, 72 h
[18] = system: Nannizzia gypsea; test: Antifungal activity against Microsporum gypseum PTCC 5070 after 168 hrs by agar dilution method; format: functional; conditions: PTCC 5070, 168 h
[19] = system: Saccharomyces cerevisiae; test: Antifungal activity against Saccharomyces cerevisiae; format: functional
[20] = system: Aspergillus niger; test: Ratio of fluconazole MIC to compound MIC for Aspergillus niger; format: functional
[21] = system: Nannizzia gypsea; test: Ratio of fluconazole MIC to compound MIC for Microsporum gypseum; format: functional
[22] = system: Candida albicans; test: Ratio of fluconazole MIC to compound MIC for Candida albicans; format: functional
[23] = system: Saccharomyces cerevisiae; test: Ratio of fluconazole MIC to compound MIC for Saccharomyces cerevisiae; format: functional
[24] = system: Mycolicibacterium phlei; test: Antimycobacterial activity against Mycobacterium phlei; format: functional
[25] = system: Mycolicibacterium aurum; test: Antimycobacterial activity against Mycobacterium aurum; format: functional
[26] = system: Mycolicibacterium fortuitum; test: Antimycobacterial activity against Mycobacterium fortuitum; format: functional
[27] = system: Mycolicibacterium smegmatis; test: Antimycobacterial activity against Mycobacterium smegmatis; format: functional
[28] = target: Acetylcholinesterase (Homo sapiens, UniProt P22303); test: Inhibition of AChE (unknown origin)
[29] = system: HUVEC; test: Cytotoxicity against HUVEC by MTT assay; format: functional, cell-based; conditions: Homo sapiens

Sequence of Acetylcholinesterase (P22303 whole entry): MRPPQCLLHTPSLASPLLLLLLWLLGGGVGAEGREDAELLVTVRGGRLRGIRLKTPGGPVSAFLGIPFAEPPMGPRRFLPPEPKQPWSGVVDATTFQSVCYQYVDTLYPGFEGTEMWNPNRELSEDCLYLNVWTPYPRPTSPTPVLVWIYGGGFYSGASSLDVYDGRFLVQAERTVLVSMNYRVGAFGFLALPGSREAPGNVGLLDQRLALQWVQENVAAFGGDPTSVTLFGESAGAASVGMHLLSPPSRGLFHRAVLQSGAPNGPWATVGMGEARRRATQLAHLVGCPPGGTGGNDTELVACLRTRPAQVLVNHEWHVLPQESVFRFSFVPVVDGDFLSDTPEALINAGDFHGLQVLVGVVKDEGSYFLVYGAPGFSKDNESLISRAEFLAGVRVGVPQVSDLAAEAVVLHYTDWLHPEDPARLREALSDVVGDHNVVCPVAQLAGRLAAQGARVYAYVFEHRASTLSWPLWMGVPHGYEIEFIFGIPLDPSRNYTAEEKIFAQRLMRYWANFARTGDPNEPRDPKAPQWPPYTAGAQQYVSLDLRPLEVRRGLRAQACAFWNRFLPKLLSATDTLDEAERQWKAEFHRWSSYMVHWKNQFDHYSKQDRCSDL

MIC [1]: 2 µg/mL
SMILES: O=[N+]([O-])O.c1ccc(CO/N=C2/c3ccccc3OCC2n2ccnc2)cc1 (stereo not drawn)

MIC [1]: 2 µg/mL
SMILES: O=[N+]([O-])O.c1ccc(CO/N=C2\c3ccccc3OCC2n2ccnc2)cc1 (stereo not drawn)

MIC [2]: ≤ 1 µg/mL
MIC [3]: ≤ 1 µg/mL
SMILES: Clc1ccc(CO/N=C2\c3ccccc3OCC2n2ccnc2)cc1Cl.O=[N+]([O-])O (stereo not drawn)

MIC [4]: 4 µg/mL (≈ 8.54 µM)
SMILES: COc1cc(C2CC(=O)c3c(cc(O)c(C/C=C(\C)CCC=C(C)C)c3O)O2)cc(OC)c1O (stereo not drawn)

SMILES: COc1ccc2c(c1)OC/C(=C\c1cc(Cl)c(OC)c(OC)c1)C2=O
IC50 [5]: 7.56 µg/mL (≈ 21 µM)
IC50 [6]: 7.56 µg/mL (≈ 21 µM)
IC50 [7]: 7.56 µg/mL (≈ 21 µM)

SMILES: O=C1/C(=C/c2ccccc2)COc2cc3c(cc21)OCO3
IC50 [8]: ≤ 9.3 µg/mL
IC50 [9]: ≤ 9.3 µg/mL
IC50 [10]: ≤ 9.3 µg/mL

SMILES: COc1cc(/C=C2\COc3cc(O)ccc3C2=O)cc(Br)c1O
IC50 [11]: ≤ 3.86 µg/mL
IC50 [12]: ≤ 3.86 µg/mL
IC50 [13]: ≤ 3.86 µg/mL

MIC [4]: 16 µg/mL (≈ 37.7 µM)
SMILES: CC(C)=CCC/C(C)=C/Cc1c(C2CC(=O)c3c(O)cc(O)cc3O2)ccc(O)c1O (stereo not drawn)

SMILES: C=C(C)C(C)c1cc(C2CC(=O)c3c(O)cc(O)cc3O2)c(OC)cc1O (stereo not drawn)
MIC [14]: 16 µg/mL (≈ 43.2 µM)

SMILES: C=C(C)C(C)c1cc(C2CC(=O)c3c(O)cc(O)cc3O2)cc(OC)c1O (stereo not drawn)
MIC [14]: 16 µg/mL (≈ 43.2 µM)

MIC [15]: 8 µg/mL (≈ 25.1 µM)
MIC [16]: 8 µg/mL (≈ 25.1 µM)
MIC [17]: 8 µg/mL (≈ 25.1 µM)
MIC [18]: 8 µg/mL (≈ 25.1 µM)
SMILES: CC1Oc2ccccc2/C(=N/Nc2ccccc2)C1n1ccnc1 (stereo not drawn)

MIC [19]: 4 µg/mL (≈ 9.44 µM)
SMILES: Clc1ccc(CO/N=C2\c3ccc(Cl)cc3OCC2n2cncn2)c(Cl)c1 (stereo not drawn)

MIC [3]: 1 µg/mL
MIC [1]: 1 µg/mL
SMILES: Clc1ccc(CO/N=C2\c3ccccc3OCC2n2cncn2)cc1Cl.O=[N+]([O-])O (stereo not drawn)
Ratio [20]: 16
Ratio [21]: 16

MIC [2]: 0.25 µg/mL
MIC [1]: 1 µg/mL
MIC [19]: 0.5 µg/mL
SMILES: C[C@@H]1Oc2cc(Cl)ccc2/C(=N\OCc2ccccc2)[C@H]1n1ccnc1.O=[N+]([O-])O
Ratio [22]: 32
Ratio [23]: 32

MIC [1]: 1 µg/mL
SMILES: C[C@@H]1Oc2ccccc2/C(=N\OCc2ccc(F)cc2)[C@H]1n1ccnc1.O=[N+]([O-])O

MIC [24]: 16 µg/mL (≈ 51.2 µM)
MIC [25]: 32 µg/mL (≈ 102 µM)
MIC [26]: 128 µg/mL (≈ 410 µM)
MIC [27]: 256 µg/mL (≈ 820 µM)
SMILES: COc1ccc(CC2COc3c(ccc4c3OCO4)C2=O)cc1 (stereo not drawn)

SMILES: Nc1oc2ccccc2c(=O)c1/C=C1\COc2ccccc2C1=O
IC50 [28]: 0.27 µM

SMILES: COc1ccccc1/C=C1\COc2ccccc2C1=O
IC50 [29]: 19 µM
